Assay results published in article PMC9704406 (Virulence, 2022).

System: Smh1
Type: biochemical, Legionella pneumophila
Conditions: 50 µM TSA, 30 min preincubation; enzyme 156.25 ng/ml; inhibitor

CC(/C=C/C(=O)NO)=C\[C@@H](C)C(=O)c1ccc(N(C)C)cc1 [Trichostatin A]
HDAC-Glo I/II luminescence assay: TSA significantly reduced Smh1 HDAC activity in comparison to Smh1 alone
